From patent US20100323016A1, “MODIFIED RELEASE FORMULATION AND METHODS OF USE” (priority 2008, published 2010)
≈ marks a conversion by molar mass, not a printed value. Read-outs that look alike come from different tables or passages of the source.

Assay: Solubility of retigabine in aqueous solution at varying pH
Assay type: physicochemical
Excerpt: Solubility was low in pH ranges of between pH 4.0 to pH 12.0.

In the case of `CCOC(=O)Nc1ccc(NCc2ccc(F)cc2)cc1N` [retigabine, N-(2-amino-4-(fluorobenzylamino)-phenyl)carbamic acid ethyl ester], the “solubility as a function of pH” value (above pH 3 (FIG. 5)) is reported as “drops off precipitously”, the solubility (pH 3.0, aqueous conditions at 37° C.) is reported as “nearly complete insolubility” and the solubility (pH 4.0 to pH 12.0, aqueous solution at 37° C.) is reported as “low”. The solubility (simulated gastric fluid, pH 1.5, aqueous solution at 37° C., maximum solubility, read-out: solubility) was ~16 mg/mL (≈ 52.7 mM) and the solubility (simulated gastric fluid, pH 2.0, aqueous solution at 37° C., read-out: solubility) was < 4 mg/mL.
